According to patent US20020076401A1, “Heat shock protein inducing factor and method for its in-situ generation from an inactive form” (priority 2000, published 2002):
Where a SMILES comes first, the peptide text is derived from it. The star is where a group is joined. Cbz = O=C(OCc1ccccc1)*

How the values were obtained:
[1] = system: Hsp72 expression in old cells; conditions: cited from earlier work
[2] = system: HSP-inducing factor in blood serum and ascites fluid; experiment: In-vitro activation of HSP-inducing factor by sodium periodate; format: cell-based, mouse
Description: To activate HSP-inducing factor, 200 mM solution of sodium periodate in physicological saline (solutions of sodium periodate in water or in 50 mM sodium acetate pH 5.0 work equally well) was added to aliquots of serum or of ascites fluid to final concentration of 1 mM to 20 mM (at these concentrations and in conditions outlined below, sodium periodate oxidizes only sugar groups). Mixtures were incubated at room temperature in darkness for 1 hour. Following the incubation sodium periodate was quenched by the addition of solution of potassium borohydride in physiological saline to a final concentration equal to 1.5 times excess of the concentration of sodium periodate. The completeness of quenching was verified by using potassium iodide-starch test paper.
(§1) Aliquots of serum, treated as described above, were added to cultures of CH1 cells and cultures of primary human fibroblasts at 20% of final volume. Cultures were incubated for 16 hours at regular tissue culture conditions (37° C., 5% CO2). Following the incubation, cells were collected, washed, and lysed. Lysates were subjected to polyacrylamide gel electrophoresis (PAGE), transferred to nitrocellulose membrane (Awestem transfer≅), and Hsp70 was detected by immunoblotting with Hsp70-specific monoclonal antibody (Spa810) and visualized by ECL technique.

[3] = system: HSP-inducing factor in serum; experiment: In-vivo activation of HSP-inducing factor by single injection of periodate; parameters: species or system mice
Description: as §1
Mice were injected with either intraperitoneally (IP) or subcutaneously (SQ) with 0.2 ml of sodium periodate solution in physiological saline, or with 0.2 ml of physiological saline alone.
Four different concentrations of sodium periodate were used: 15 mM, 30 mM, 60 mM, and 120 mM. In parallel experiments the same concentrations of periodate but prequenched with potassium borohydride as described above were injected. After 2 hours blood samples were collected from tail and serum was used in the assay described above.

[4] = system: HSP-inducing factor in serum; experiment: In-vivo activation of HSP-inducing factor by prolonged release of periodate; parameters: species or system mouse; conditions: 500 mM released over 72 hours, SQ pump; detected after 3 hours and maintained
Description: In another type of experiment […] of either 500 mM solution of sodium periodate in physiological saline or physiological saline alone were released over a period of 72 hours using microosmotic pumps implanted SQ. In parallel experiments the same concentration of periodate but prequenched with potassium borohydride as described above was administered. After different time periods blood samples were collected from tail and serum was used in the assay described above.

[5] = system: Hsp70-inducing activity in serum; experiment: Periodate treatment of serum from differently stressed mice; format: cell-based; conditions: in vitro periodate treatment

Row | SMILES | toxicity [1] | Hsp72 synthesis ([1]; old cells) | levels of active factor versus periodate concentration ([2]; assessed by Hsp70 in cell lysates) | activation of HSP-inducing factor ([2]; blood serum and ascites fluid, 1 mM to 20 mM, 1 hour, room temperature) | Hsp70 in cell lysate relative to cells incubated with untreated serum ([2]; maximal sodium periodate concentration, serum at 20%, 16 hours) | levels of HSP in cell lysates relative to cells incubated with untreated serum ([3]; maximal sodium periodate concentration, single injection) | levels of HSP-inducing factor in serum ([3]; mice, IP or SQ 0.2 ml of 15-120 mM, 2 hours) | levels of HSP-inducing factor versus periodate concentration ([3]; mice, single injection) | levels of HSP-inducing factor in serum [4] | Hsp70-inducing activity of serum from differently stressed mice after periodate treatment [5]
1 | CC(C)C[C@@H](C=O)NC(=O)[C@H](CC(C)C)NC(=O)[C@H](CC(C)C)NC(=O)OCc1ccccc1 [MG132] (Cbz-Leu-Leu-Leu-aldehyde) | highly toxic | induces Hsp72 synthesis via an alternative heat shock transcription factor HSF2 | – | – | – | – | – | – | – | –
2 | [O-][I+3]([O-])([O-])O [sodium periodate] | – | – | directly proportional to concentrations of sodium periodate used | strongly activated | at least 50 times | about 10 times | substantially increased levels of HSP-inducing factor | directly proportional to the concentrations of periodate used | Substantially increased levels of HSP-inducing factor | further increased in all samples to a level identical to that seen in periodate-activated serum from non-stressed mice
